Key:
[1] = system: corneal endothelial cells (CECs); settings: cited from earlier work
CEC = CEC migration, proliferation and wound healing with ROCK inhibitor; type: cell-based; settings: compared with Y-27632
[2] = system: rabbit corneal endothelium; experiment: Rabbit corneal endothelium injury model; type: in vivo; settings: compared
EFSC-derived NCSCs = experiment: Differentiation of CECs from ocular neural crest stem cells; type: cell-based, human; settings: added to the differentiation medium
Description: Differentiation of CECs from ocular neural crest stem cells. In order to test if CECs could be induced from the EFSC-derived NCSCs directly in vitro, NCSCs were seeded at low cell density on an FNC coated plate. […] They remained proliferative and formed a relatively homogenous monolayer of cells after a few passages (FIG. 5B). To further characterize the NCSC-derived CEC sheets, immunostaining for several typical CEC markers including tight junction protein 1 (TJP1/ZO-1), N-Cadherin, and Na+/K+ ATPase was performed (FIG. 5C).

EFSCs = experiment: Directed differentiation of eye field stem cells into ocular neural crest stem cells; type: cell-based, human; settings: 3 μM in NCSC induction medium; after a week of induction
Description: Directed differentiation of eye field stem cells into ocular neural crest stem cells. […] The in vitro derivation of neural crest stem cells from PSCs has been previously described (Chambers et al., 2013; Lee et al., 2007). It was reasoned that, if EFSCs could be primed toward ocular neural crest lineage, the cells could serve as a direct and renewable source to generate CECs in culture. To direct EFSCs toward neural crest fate, EFSCs were seeded at low density, and neural crest lineage specification was initiated in NCSC induction medium supplemented with the presence of 3 μM CHIR 99021. […] Immunostaining also detected the expression of nuclear translocation of beta-catenin (FIG. 4C), an indication of increased WNT canonical signaling during neural crest formation.

In the case of `C[C@@H](N)[C@H]1CC[C@H](C(=O)Nc2ccncc2)CC1` [Y-27632], the “apoptosis of CECs” value [1] is given as “inhibition of apoptosis”, the “proliferation of corneal endothelial cells (CECs)” value [1] is given as “increased proliferation” and the “corneal endothelial wound healing” value ([1]; in vitro and in vivo) is given as “enhanced corneal endothelial wound healing”.
In the case of `Cc1cncc2cccc(S(=O)(=O)N3CCCNC[C@@H]3C)c12` [H-1125], the “effect on CEC migration, proliferation and wound healing” value (CEC) is reported as “more significant stimulatory effect”, the wound healing effect [2] is reported as “better wound healing effect” and the “effect on differentiation of CECs” value (EFSC-derived NCSCs) is reported as “improve the differentiation of CECs”.
With `Cc1c[nH]c(-c2cnc(NCCNc3ccc(C#N)cn3)nc2-c2ccc(Cl)cc2Cl)n1` [CHIR 99021] the “expression of NCSC surface marker HNK-1” value (EFSCs) was “majority of EFSCs start to express a typical NCSC surface marker HNK-1”.
